The record followed here is patent US8476265B2, “Compounds-801” (AstraZeneca AB, priority 2010, dated 2013).

Assay [1] deals with T1, human muscarinic acetylcholine M3 receptor (Homo sapiens, UniProt P20309).
T1 construct: expressed in transfected cells; host or cells: CHO-K1 (Chinese Hamster Ovary) cell membranes
In words: Muscarinic 3 receptor binding assay ([3H]NMS competition, SPA), single concentration 1 μM. Conditions: 1 μM compound; % inhibition specific [3H]-NMS binding. The method, then:
The following experimental procedure was used to determine the M3% inhibition at 1 μM of the compounds of Examples 99-175
Muscarinic 3 Receptor Binding Assay
The activity (% inhibition specific binding) of compounds on the M3 receptor is determined by competition binding of [^3H]N-methyl scopolamine (NMS) to CHO-K1 (Chinese Hamster Ovary) cell membranes expressing the human muscarinic acetylcholine M3 receptor (M3-ACh) in a scintillation proximity assay (SPA) format. SPA beads are precoated with membranes and then incubated at 2 mg of beads per well with 1 μM compound of the invention, [^3H]NMS at 0.1 nM, quarter Kd (experimentally determined dissociation constant) and assay buffer (20 mM HEPES pH 7.4 containing 5 mM MgCl2 and 0.1% (w/v) bovine serum albumin). The assay is conducted in a final volume of 200 μL, in the presence of 1% (v/v) dimethyl sulphoxide (DMSO). Total binding of [^3H]NMS is determined in the absence of competing compound and non-specific binding of [^3H]NMS is determined in the presence of 1 μM atropine. The plates are incubated for 16 hours at room temperature and then read on Wallac Microbeta™ using a normalised ^3H protocol. The compound activity at 1 μM, defined as % inhibition specific [^3H]-NMS binding, is determined.

For the next assay, the target named is T2, Adrenergic β2 (Homo sapiens, UniProt P07550).
T2 construct: Adherent H292 cells are removed from tissue culture flasks by treatment with Accutase™ cell detachment solution; endogenous in cells; host or cells: H292 cells
T2 sequence (P07550 whole entry): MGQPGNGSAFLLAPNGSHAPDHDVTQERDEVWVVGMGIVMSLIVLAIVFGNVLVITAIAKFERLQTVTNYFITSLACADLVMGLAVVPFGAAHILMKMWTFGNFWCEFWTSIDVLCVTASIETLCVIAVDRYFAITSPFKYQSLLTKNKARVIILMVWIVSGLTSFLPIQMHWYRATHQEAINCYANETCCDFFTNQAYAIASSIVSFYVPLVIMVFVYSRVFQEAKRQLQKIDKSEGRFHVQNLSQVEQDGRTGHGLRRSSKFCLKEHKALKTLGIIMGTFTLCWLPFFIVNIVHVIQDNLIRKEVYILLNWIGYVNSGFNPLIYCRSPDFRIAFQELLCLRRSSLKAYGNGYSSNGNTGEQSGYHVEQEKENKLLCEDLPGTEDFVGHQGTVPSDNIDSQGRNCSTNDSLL
In words: Adrenergic β2 mediated cAMP production in H292 cells, single concentration 1 μM. The format is cell-based. The settings on record: NCI-H292, 1 μM compound, cAMP as percentage of the maximum response generated by 1E-07M formoterol, read-out: β2 % effect @1 uM. The method, then:
The following experimental procedure was used to measure the beta-2% effect at 1 μM for the compounds of Examples 99-175. Adrenergic p2 Mediated cAMP Production Cell Preparation
H292 cells are grown in 225 cm2 flasks incubator at 37° C., 5% CO2 in RPMI medium containing 10% (v/v) FBS (foetal bovine serum) and 2 mM L-glutamine.
Compounds are prepared by an initial first dilution into DMSO to give 1 mM stock concentration. This is followed by a 1 in 10 dilution of the stock concentration (10 μl stock compound +90 μl DMSO) to give 0.1 mM compound. A compound addition plate is prepared by making a further 1 in 25 dilution in assay buffer (HBSS solution containing 10 mM HEPES pH7.4 and 5 mM glucose) containing 4% dimethylsulfoxide. The final compound concentration in assay is 1 μM.
Adherent H292 cells are removed from tissue culture flasks by treatment with Accutase™ cell detachment solution for 15 minutes. Flasks are incubated for 15 minutes in a humidified incubator at 37° C., 5% CO2. Detached cells are re-suspended in RPMI media (containing 10% (v/v) FBS and 2 mM L-glutamine) at 0.1×10^6 cells per mL. 10000 cells in 100 μL are added to each well of a tissue-culture-treated 96-well plate and the cells incubated overnight in a humidified incubator at 37° C., 5% CO2. The culture media is removed and cells are washed twice with 100 μL assay buffer and replaced with 50 μL assay buffer (HBSS solution containing 10 mM HEPES pH7.4 and 5 mM glucose). Cells are rested at room temperature for 20 minutes after which time 25 μL of rolipram (1.2 mM made up in assay buffer) is added. Cells are incubated with rolipram for 10 minutes after which time 25 μl test compounds are added and the cells are incubated for 60 minutes at room temperature. The final rolipram concentration in the assay is 300 μM and final vehicle concentration is 1% (v/v) dimethylsulphoxide. The reaction is stopped by removing supernatants, washing once with 100 μL assay buffer and replacing with 50 μL lysis buffer. The cell monolayer is frozen at −80° C. for 30 minutes (or overnight).
AlphaScreen™ cAMP Detection
The concentration of cAMP (cyclic adenosine monophosphate) in the cell lysate is determined using AlphaScreen™ methodology. The frozen cell plate is thawed for 20 minutes on a plate shaker then 10 μL of the cell lysate is transferred to a 96-well white plate. 40 μl of mixed AlphaScreen™ detection beads (containing equal volumes of donor beads (pre-incubated with biotinylated cAMP in the dark for 30 minutes) and acceptor beads is added to each well and the plate incubated at room temperature for 3 hours in the dark. The AlphaScreen™ signal is measured using an EnVision spectrophotometer (Perkin-Elmer Inc.) with the recommended manufacturer's settings. Concentration of cAMP produced per well were calculated with reference to the cAMP standard curve determined in the same experiment and expressed as a percentage of the maximum response generated by 1E-07M formoterol.

T1 sequence (P20309 whole entry): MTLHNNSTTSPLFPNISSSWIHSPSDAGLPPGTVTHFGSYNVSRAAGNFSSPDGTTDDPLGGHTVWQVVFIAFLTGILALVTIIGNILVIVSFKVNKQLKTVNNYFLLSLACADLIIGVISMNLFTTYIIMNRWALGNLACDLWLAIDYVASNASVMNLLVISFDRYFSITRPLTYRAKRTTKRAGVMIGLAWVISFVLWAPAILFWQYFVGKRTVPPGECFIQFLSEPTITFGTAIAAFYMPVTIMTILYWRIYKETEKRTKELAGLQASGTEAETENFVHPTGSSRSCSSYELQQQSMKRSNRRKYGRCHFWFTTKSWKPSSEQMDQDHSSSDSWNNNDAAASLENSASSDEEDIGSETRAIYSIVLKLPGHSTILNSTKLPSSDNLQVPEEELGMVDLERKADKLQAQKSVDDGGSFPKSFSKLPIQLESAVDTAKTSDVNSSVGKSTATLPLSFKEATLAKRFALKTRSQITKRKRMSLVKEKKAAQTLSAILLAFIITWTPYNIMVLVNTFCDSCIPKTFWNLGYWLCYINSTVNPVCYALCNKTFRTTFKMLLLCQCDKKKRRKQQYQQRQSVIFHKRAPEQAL

Regarding `O=C1COc2c(CCNCCN(C(=O)CCOCCc3cccc(CN4CCC5(CC4)CN(C(=O)c4ccc(-n6cccn6)nc4)CCO5)c3)C3CCCCC3)ccc(O)c2N1` [Example 112, 3-(3-((4-(6-(1H-Pyrazol-1-yl)nicotinoyl)-1-oxa-4,9-diazaspiro[5.5]undecan-9-yl)methyl)phenethoxy)-N-cyclohexyl-N-(2-(2-(5-hydroxy-3-oxo-3,4-dihydro-2H-benzo[b][1,4]oxazin-8-yl)ethylamino)ethyl)propanamide], the inhibition at 1 µM in assay [1] was 98%. Further, the percent of formoterol maximum response at 1 µM at Adrenergic β2 amounted to 105%.

As to `O=C1COc2c(CCNCCN(C(=O)CCOCCc3cccc(CN4CCC5(CC4)CN(C(=O)C4(c6ccccc6)CC4)CCO5)c3)C3CCCCC3)ccc(O)c2N1` [Example 113, N-Cyclohexyl-N-(2-(2-(5-hydroxy-3-oxo-3,4-dihydro-2H-benzo[b][1,4]oxazin-8-yl)ethylamino)ethyl)-3-(3-((4-(1-phenylcyclopropanecarbonyl)-1-oxa-4,9-diazaspiro[5.5]undecan-9-yl)methyl)phenethoxy)propanamide], the inhibition at 1 µM in assay [1] is 100%. In addition, the percent of formoterol maximum response at 1 µM at Adrenergic β2 is 112%.

`COC1CCCC(C(=O)N2CCOC3(CCN(Cc4cccc(CCOCCC(=O)N(CCNCCc5ccc(O)c6c5OCC(=O)N6)C5CCCCC5)c4)CC3)C2)C1` (stereo not drawn) [Example 114, N-Cyclohexyl-N-(2-(2-(5-hydroxy-3-oxo-3,4-dihydro-2H-benzo[b][1,4]oxazin-8-yl)ethylamino)ethyl)-3-(3-((4-(3-methoxycyclohexanecarbonyl)-1-oxa-4,9-diazaspiro[5.5]undecan-9-yl)methyl)phenethoxy)propanamide]: the inhibition at 1 µM in assay [1] was 100%. Moreover, the percent of formoterol maximum response at 1 µM at Adrenergic β2 came to 106%.

As to `O=C1COc2c(CCNCCN(C(=O)CCOCCc3cccc(CN4CCC5(CC4)CN(C(=O)CC46CC7CC(CC(O)(C7)C4)C6)CCO5)c3)C3CCCCC3)ccc(O)c2N1` [Example 116, N-Cyclohexyl-3-[2-[3-[[10-[2-(3-hydroxy-1-adamantyl)acetyl]-7-oxa-3,10-diazaspiro[5.5]undecan-3-yl]methyl]phenyl]ethoxy]-N-[2-[2-(5-hydroxy-3-oxo-4H-1,4-benzoxazin-8-yl)ethylamino]ethyl]propanamide], the inhibition at 1 µM in assay [1] amounted to 94%. Further, on Adrenergic β2, the percent of formoterol maximum response at 1 µM came out at 80%.

On to `Cc1nc2cc(C(=O)N3CCOC4(CCN(Cc5cccc(CCOCCC(=O)N(CCNCCc6ccc(O)c7c6OCC(=O)N7)C6CCCCC6)c5)CC4)C3)ccc2[nH]1` [Example 117, N-Cyclohexyl-N-(2-(2-(5-hydroxy-3-oxo-3,4-dihydro-2H-benzo[b][1,4]oxazin-8-yl)ethylamino)ethyl)-3-(3-((4-(2-methyl-1H-benzo[d]imidazole-5-carbonyl)-1-oxa-4,9-diazaspiro[5.5]undecan-9-yl)methyl)phenethoxy)propanamide], for which the inhibition at 1 µM in assay [1] was 99%. On Adrenergic β2, the percent of formoterol maximum response at 1 µM worked out at 90%.

On to `Cc1ncc(Br)cc1C(=O)N1CCOC2(CCN(Cc3cccc(CCOCCC(=O)N(CCNCCc4ccc(O)c5c4OCC(=O)N5)C4CCCCC4)c3)CC2)C1` [Example 118, 3-(3-((4-(5-Bromo-2-methylnicotinoyl)-1-oxa-4,9-diazaspiro[5.5]undecan-9-yl)methyl)phenethoxy)-N-cyclohexyl-N-(2-(2-(5-hydroxy-3-oxo-3,4-dihydro-2H-benzo[b][1,4]oxazin-8-yl)ethylamino)ethyl)propanamide], for which, in assay [1], the inhibition at 1 µM stood at 96%. Also, the percent of formoterol maximum response at 1 µM at Adrenergic β2 was 97%.

With `O=C1COc2c(CCNCCN(C(=O)CCOCCc3cccc(CN4CCC5(CC4)CN(C(=O)c4n[nH]c6ccccc46)CCO5)c3)C3CCCCC3)ccc(O)c2N1` [Example 120, 3-(3-((4-(1H-Indazole-3-carbonyl)-1-oxa-4,9-diazaspiro[5.5]undecan-9-yl)methyl)phenethoxy)-N-cyclohexyl-N-(2-(2-(5-hydroxy-3-oxo-3,4-dihydro-2H-benzo[b][1,4]oxazin-8-yl)ethylamino)ethyl)propanamide], the inhibition at 1 µM in assay [1] was determined as 101%. For the same compound, the percent of formoterol maximum response at 1 µM at Adrenergic β2 stood at 97%.

Take `O=C1COc2c(CCNCCN(C(=O)CCOCCc3cccc(CN4CCC5(CC4)CN(C(=O)c4cnccc4C(F)(F)F)CCO5)c3)C3CCCCC3)ccc(O)c2N1` [Example 121, N-Cyclohexyl-N-(2-(2-(5-hydroxy-3-oxo-3,4-dihydro-2H-benzo[b][1,4]oxazin-8-yl)ethylamino)ethyl)-3-(3-((4-(4-(trifluoromethyl)nicotinoyl)-1-oxa-4,9-diazaspiro[5.5]undecan-9-yl)methyl)phenethoxy)propanamide]: the inhibition at 1 µM in assay [1] came to 88%. Moreover, the percent of formoterol maximum response at 1 µM at Adrenergic β2 came out at 84%.

For the compound `O=C1COc2c(CCNCCN(C(=O)CCOCCc3cccc(CN4CCC5(CC4)CN(C(=O)c4ccc(-n6cccn6)cc4)CCO5)c3)C3CCCCC3)ccc(O)c2N1` [Example 122, 3-(3-((4-(4-(1H-Pyrazol-1-yl)benzoyl)-1-oxa-4,9-diazaspiro[5.5]undecan-9-yl)methyl)phenethoxy)-N-cyclohexyl-N-(2-(2-(5-hydroxy-3-oxo-3,4-dihydro-2H-benzo[b][1,4]oxazin-8-yl)ethylamino)ethyl)propanamide], the inhibition at 1 µM in assay [1] is 84%. Also, the percent of formoterol maximum response at 1 µM at Adrenergic β2 was 87%.

Consider `O=C1COc2c(CCNCCN(C(=O)CCOCCc3cccc(CN4CCC5(CC4)CN(C(=O)c4[nH]nc6c4CCCC6)CCO5)c3)C3CCCCC3)ccc(O)c2N1` [Example 123, N-Cyclohexyl-N-(2-(2-(5-hydroxy-3-oxo-3,4-dihydro-2H-benzo[b][1,4]oxazin-8-yl)ethylamino)ethyl)-3-(3-((4-(4,5,6,7-tetrahydro-2H-indazole-3-carbonyl)-1-oxa-4,9-diazaspiro[5.5]undecan-9-yl)methyl)phenethoxy)propanamide], for which the inhibition at 1 µM in assay [1] worked out at 99%. Moreover, the percent of formoterol maximum response at 1 µM at Adrenergic β2 was determined as 97%.

As for `O=C1COc2c(CCNCCN(C(=O)CCOCCc3cccc(CN4CCC5(CC4)CN(C(=O)Cc4noc6ccccc46)CCO5)c3)C3CCCCC3)ccc(O)c2N1` [Example 124, 3-(3-((4-(2-(Benzo[d]isoxazol-3-yl)acetyl)-1-oxa-4,9-diazaspiro[5.5]undecan-9-yl)methyl)phenethoxy)-N-cyclohexyl-N-(2-(2-(5-hydroxy-3-oxo-3,4-dihydro-2H-benzo[b][1,4]oxazin-8-yl)ethylamino)ethyl)propanamide], the inhibition at 1 µM in assay [1] is 100%. Moreover, on Adrenergic β2, the percent of formoterol maximum response at 1 µM is 101%.

As for `O=C1COc2c(CCNCCN(C(=O)CCOCCc3cccc(CN4CCC5(CC4)CN(C(=O)Cn4cnc6ccccc64)CCO5)c3)C3CCCCC3)ccc(O)c2N1` [Example 125, 3-(3-((4-(2-(1H-Benzo[d]imidazol-1-yl)acetyl)-1-oxa-4,9-diazaspiro[5.5]undecan-9-yl)methyl)phenethoxy)-N-cyclohexyl-N-(2-(2-(5-hydroxy-3-oxo-3,4-dihydro-2H-benzo[b][1,4]oxazin-8-yl)ethylamino)ethyl)propanamide], in assay [1], the inhibition at 1 µM stood at 93%. For the same compound, at Adrenergic β2, the percent of formoterol maximum response at 1 µM turned out to be 114%.
